Consider 1 molecule from patent US7396946B2, “Compound for treatment of external secretion disorders” (Sucampo AG, priority 1999, dated 2008).

The subject of series [1] is normal rabbits. Kind of series: Effect on whole tear secretion of normal rabbits (Schirmer's test, Test Example 1). The following applies: for whole tear secretion: 30 μl/eye single instillation, 8 eyes. The series is classed as in vivo, Male Japanese albino rabbits (Std:JW/CSK). As for the experimental part: Male Japanese albino rabbits (Std:JW/CSK) were used.
(2) Method of Administration
Ophthalmic solution comprising 0.001% of 13,14-dihydro-15-keto-16,16-difluoro-PGE1 as an active ingredient of the present invention was prepared and used as a test composition. As a control, the vehicle of said solution without the active ingredient was used.
Each of the compositions was instilled singly to eight eyes at the amount of 30 μl/eye. After the administration, the time course of the tear secretion change was examined according to the following method.
Before (0 hour) and 0.5, 2, 4, and 6 hours after the instillation, the whole tear secretion was determined.
Under no anesthetization, one edge of the Schirmer's test strip (Showa Yakuhin Kako Co., Ltd., Lot No. 70080) was inserted into the conjunctival sac of the each test animal. One minute after, the strip was removed and the length of the moisted part was read from the scale provided on the strip to determine the amount of whole tear secretion.

Series [2] deals with Rabbit Dry-eye Syndrome Model, which was Induced by Trigeminal Denervation. Put plainly: Whole tear secretion (Schirmer's test) in rabbit dry-eye syndrome model induced by trigeminal denervation (Test Example 2). The series is classed as in vivo, male Japanese albino rabbits (Std:JW/CSK). The following applies: for whole tear secretion: 5 eyes. As for the experimental part:
Fifteen male Japanese albino rabbits (Std:JW/CSK) were used.
(2) Generating Rabbit Dry-eye Syndrome Model by Trigeminal Denervation.
Urethane (ALDRICH) was administered i.p. at the dose of 1 g/kg to the rabbits of which occipital hair had been shaved.
After disinfecting of the shaved area, midline incision of the skin was made from the frontal bone to the ear root, and the muscular tissue around the periosteum, temporal bone and manidibular articular process were detached. After the detachment, a hole of 2×1.5 cm in size was made in the bone from the parietal medial region to the temporal region by means of the bone drill (URAWA KOGYO Co., Ltd. MINITOR C-130) under the surgical microscope (KONAN CAMERA R&I Inc., PMO-50). Then, the dura was detached from the cranial bone while cotton bud was kept inserted between the temporal bone and the dura. After the detachment was made up to the cranial base, detachment was further made toward the medial border of the petrous part of temporal bone in the carnial cavity, to find the trigeminal nerve in the petrous part. Then, the dura of about 1 to 2 mm on the nasal side of the semilunar ganglion was incised. After the incision, the two branches of nerve fascicle, i.e. the first branch (ocular nerve) of the trigeminal nerve and the second branch (maxillary nerve) were pulled laterally and cut with corneoscleral scissors. Immediately after the operation, miosis of the ipsilateral eye was confirmed and then the cotton kept inserted was removed, and the skin at the head was closed with suture. After the operation, an antibiotic (MYCILLIN SQL® Meiji) was administered i.m. at the dose of 0.1 ml/kg.
The trigeminal denervation was made only on the left eye side, while on the right eye side, no trigeminal denervation nor sham operation was made.
(3) Method of Administration.
13,14-dihydro-15-keto-16,16-difluoro-PGE1 was used as an active ingredient of the present invention to prepare test eyedrops containing 0.0001% and 0.001% of the compound. As a control, the vehicle of the eyedrops without the active ingredient was used.
Each of the compositions was instilled to the eyes everyday at the volume of 30 μl/eye two times a day (at 10:00 and 18:00) for two weeks. Five eyes per each of the test groups and the control group were treated and then examined for the whole tear secretion, the basal tear secretion and the keratoepithelial lesion as follows.
i) Whole Tear Secretion (Schirmer's Test)
Before the start of the instillation (week 0), and 1, 2, and 3 weeks after the start, the whole tear secretion was measured two hours after the first instillation on the day of examination.
Under no anesthetization, one edge of the Schirmer's test strip (Showa Yakuhin Kako Co., Ltd., Lot No. 70080) was inserted into the conjunctival sac of each test animal. One minute after, the strip was removed and the length of the moistened part was read from the scale provided on the strip to determine the amount of whole tear secretion.

In series [3] the test system is rats (Crj:CD strain). Kind of series: Exaltation of salivation, saliva evaluated visually (Test Example 3). In kind it is in vivo, Male and female rats (Crj:CD strain). The note with it: 1 mg/kg orally once a day, 16 animals per group. As for the experimental part: The effect of the composition of the present invention on salivary secretion was determined. (1) Test Animals Male and female rats (Crj:CD strain) were used. Each of the test and control groups contains 16 animals. (2) Method of Administration 13,14-dihydro-15-keto-16,16-difuloro-PGE1 was used as an active ingredient of the present invention to prepare test solution containing 0.2 mg/ml of the compound. 5 ml/kg of the solution (1 mg/kg of the compound) was forcedly administrated orally once a day. For the animals of control group, 5 ml/kg of the vehicle without the active ingredient was administrated once a day. The administration was continued for four weeks. (3) Examination The amount of the saliva of the test group and control group was evaluated visually everyday.

Series [4] has as its system rats (SD strain). Kind of series: Exaltation of salivation, salivary weight on paper filter (Test Example 4). In kind it is in vivo, Male rats (SD strain). The note with it: 1.0 mg/kg orally once a day for 10 days. As for the experimental part: The effect of the composition of the present invention on salivary secretion was determined. (1) Test Animals Male rats (SD strain) were used. Each of the test and control groups contains 8 animals. (2) Method of Administration 13,14-dihydro-15-keto-16,16-difuloro-PGE1 was used as an active ingredient of the present invention to prepare test solution containing 0.2 mg/ml of the compound. 5 ml/kg of the solution (1.0 mg/kg of the compound) was forcedly administrated orally once a day. For the animals f control group, 5 ml/kg of vehicle without the active ingredient was administrated once a day. The administration was continued for 10 days. (3) Examination The amount of the saliva of the test group and control group was measured one hour after the administration on 10th day. The edge of a paper filter (Schirmer's test strip, Showa Yakuhin Kako Co., Ltd.) was inserted between lower gingiva and mandibula. Three minutes after, the paper filter was removed and the weight of the saliva was calculated by the following formula. weight of saliva=(the weight of paper filter including saliva)−(weight of only paper filter) (4) Result

Marks after values point to notes of the source that are not given here.

With `CCCCC(F)(F)C(=O)CCC1C(O)CC(=O)C1CCCCCCC(=O)O` (centres unmarked) [13,14-dihydro-15-keto-16,16-difluoro-PGE1], the whole tear secretion is 17.0 ± 0.5 mm/min in series [1] (0.001% ophthalmic solution, 0.5 hr after); 14.1 ± 0.5 mm/min in series [1] (0.001% ophthalmic solution, 2 hr after); 11.7 ± 0.6 mm/min in series [1] (0.001% ophthalmic solution, 4 hr after); 10.5 ± 1.0 mm/min in series [1] (0.001% ophthalmic solution, 6 hr after); 5.3 ± 0.2 mm/min in series [1] (test group 0.001% ophthalmic solution, before the administration (baseline)); 7.10 ± 0.51**^++ mm/min in series [2] (0.0001% eyedrops 30 μl/eye two times a day for two weeks, week 1). Besides, the whole tear secretion in series [2] (0.0001% eyedrops 30 μl/eye two times a day for two weeks, week 2) is 6.60 ± 0.37*^##++ mm/min; in series [2] (0.0001% eyedrops 30 μl/eye two times a day for two weeks, week 3), 6.30 ± 0.68^++ mm/min; in series [2] (0.001% eyedrops 30 μl/eye two times a day for two weeks, week 1) it was 11.20 ± 0.51**^##++ mm/min; in series [2] (0.001% eyedrops 30 μl/eye two times a day for two weeks, week 2), 10.50 ± 0.57**^##++ mm/min; in series [2] (0.001% eyedrops 30 μl/eye two times a day for two weeks, week 3), 9.90 ± 0.81**^##++ mm/min; in series [2] (test group 0.0001% eyedrops, before administration (after operation, baseline)) it was 3.00 ± 0.61 mm/min. The whole tear secretion in series [2] (test group 0.001% eyedrops, before administration (after operation, baseline)) was found to be 3.20 ± 0.51 mm/min. Besides, in series [1] (0.001% ophthalmic solution, versus control group), the “amount of whole tear secretion (result in words)” value is recorded as “significant increase”. Further, in series [1] (after instillation of 0.001% ophthalmic solution, 30 μl/eye), the “stimulating response, such as rubor in the front of the eye” value was “No stimulating response”. In series [2] (dry-eye syndrome model animals, 0.0001% and 0.001% eyedrops), the “decreased whole tear secretion (result in words)” value is listed as “improved”. Besides, in series [3] (10th day after the start of the administration), the “rats in which exaltation of saliva was observed” value is 8 of 16. Also, the “rats showing salivary exaltation” value in series [3] (subsequent to the 22nd day after the start) was determined as 16 rats. Besides, in series [4] (compared with the control group), the “salivary secretion (result in words)” value was “significantly increased”. For the same molecule, in series [4] (one hour after the administration on 10th day, paper filter 3 minutes, 8 animals), the “Salivary weight (mean ± S.E.)” value came out at 18.1 ± 5.6 mg.
